Read-outs that look alike come from different tables or passages of the source. Where no end group is shown, it is not given here.
Legend:
DENV-2 strain NG-C [1] = type: cell-based, dengue virus-2 (DENV-2); conditions: for inhibition of DENV-2 infection (in words): DENV-2 NG-C, any concentration tested; for maximum inhibition: 24 h
Experimental: LLC-MK2 target cells were seeded at a density of 1×10^5 cells in each well of a 6-well plate 24 h prior to infection. Approximately 200 focus forming units (FFU) of virus were incubated with or without peptide in serum-free DMEM for 1 h at rt. Virus/peptide or virus/control mixtures were allowed to infect confluent target cell monolayers for 1 h at 37°C, with rocking every 15 m, after which time the medium was aspirated and overlaid with fresh DMEM/10% (v/v) FBS containing 0.85% (w/v) Sea-Plaque Agarose (Cambrex Bio Science, Rockland, ME) without rinsing. Cells with agar overlays were incubated at 4°C for 20 m to set the agar. Infected cells were then incubated at 37°C with 5% CO2 for 5 days. Infected cultures were fixed with 10% formalin overnight at 4°C, permeablized with 70% (v/v) ethanol for 20 m, and rinsed with phosphate buffered saline, pH 7.4 (PBS) prior to immunostaining. Virus foci were detected using a specific mouse mAb from hybridoma E60 (obtained from M. Diamond at Washington University), followed by horseradish peroxidase-conjugated goat anti-mouse immunoglobulin (Pierce, Rockford, IL), and developed using AEC chromogen substrate (Dako, Carpinteria, CA). Results are expressed as the average of at least two independent trials with three replicates each. IC50 values were determined using variable slope sigmoidal dose-response curve fits with GraphPad Prism 4.0 software (LaJolla, CA), except for DN81opt, which was determined graphically due to a lack of data points to produce a reasonable curve fit.

LLC-MK2 cells = type: cell-based, Macaca mulatta
Experimental: Cytotoxicity of peptides was measured by monitoring mitochondrial reductase activity using the TACS™ MTT cell proliferation assay (R&D Systems, Inc., Minneapolis, MN) according to the manufacturer's instructions. Dilutions of peptides in serum-free DMEM were added to confluent monolayers of LLC-MK2 cells in 96-well plates for 1 h at 37°C, similar to the focus forming inhibition assays, and incubated at 37°C with 5% (v/v) CO2 for 24 h. Absorbance at 560 nm was measured using a Tecan GeniosPro plate reader (Tecan US, Durham, NC).

[2] = molecular target: T1, purified, recombinant, 80% truncated DENV-2 S1 E protein (Dengue virus type 2, UniProt P12823); test: biochemical; type: binding, DENV-2 strain S1; conditions: for kon: read-out: association rate constant ka; for koff: read-out: dissociation rate constant kd
T1 construct: Purified, recombinant, 80% truncated DENV-2 S1 E protein was obtained from Hawaii Biotechnology; purchased Hawaii Biotechnology (Honolulu, HI)
Experimental: Real time binding assays between peptides and purified DENV-2 S1 E protein were performed using biolayer interferometry on an Octet QK system (Fortebio, Menlo Park, CA). This system monitors interference of light reflected from the surface of a fiber optic sensor to measure the thickness of molecules bound to the sensor surface. Purified, recombinant, 80% truncated DENV-2 S1 E protein was obtained from Hawaii Biotechnology (Honolulu, HI). Peptides were N-terminally biotinylated with a 5∶1 molar ratio of NHS-LC-LC-Biotin (Pierce/ThermoFisher, Rockford, IL) in PBS pH 6.5 at 4°C. Excess biotinylation reagent was removed using Pepclean C-18 spin columns (Pierce/ThermoFisher, Rockford, IL). Biotinylated peptides were coupled to kinetics grade streptavidin high binding biosensors (Fortebio, Menlo Park, CA) at several different concentrations. Sensors coated with peptides were allowed to bind to E protein in PBS with 0.02% (v/v) Tween-20 and 1 mg/ml BSA at several different E protein concentrations. Binding kinetics were calculated using the Octet QK software package, which fit the observed binding curves to a 1∶1 binding model to calculate the association rate constants. E protein was allowed to dissociate by incubation of the sensors in PBS. Dissociation curves were fit to a 1∶1 model to calculate the dissociation rate constants. Binding affinities were calculated as the kinetic dissociation rate constant divided by the kinetic association rate constant.

[3] = test system: DENV-2 binding to LLC-MK2 cells; test: Virus:cell binding inhibition assay (qRT-PCR); type: cell-based, dengue virus-2 (DENV-2); conditions: virus pre-incubated 1 h 4°C, bound to LLC-MK2 2 h 4°C, washed, compared to control virus without peptide
Experimental: Binding inhibition assays were modified from Thaisomboonsuk, et al.}. Briefly, LLC-MK2 monolayers were rinsed in 4°C DMEM containing 0.8% BSA and 25 mM HEPES, pH 7.5. Virus was incubated at 4°C with peptides, control anti-dengue serum, or heparan sulfate in DMEM/BSA/HEPES for one hour before adding to the monolayers for 2 hours at 4°C. Monolayers were rinsed 3 times with cold DMEM/BSA/HEPES media prior to RNA extraction using the Qiagen RNeasy mini kit (Valencia, CA) per manufacturers instructions. Quantitative, real time, reverse transcriptase polymerase chain reaction (qRT-PCR) was conducted utilizing the Roche Lightcycler RNA Master SYBR Green 1 qRT-PCR kit (Basel, Switzerland), using primers Den_F (TTAGAGGAGACCCCTCCC) and Den_R ([…]) from Chutinimitkul et al.}. and the following cycling conditions: 1 h at 61°C, 30 s at 95°C, followed by 45 cycles of: 5 s at 95°C, 20 s at 61°C, and 30 s at 72°C. Cp values were used to estimate infectious units according to a standard curve. Independent assays were repeated three times, in duplicate or triplicate.

DENV-2 strain NG-C [4] = conditions: cited from earlier work; for DENV inhibitory activity of wild type mimic peptides (in words): previous work; for IC50: previously tested wild type peptides denoted with an asterisk, read-out: IC50 (did not achieve 50% inhibition), previously tested wild type peptides
Text: Table 1 Sequences and IC50 values of peptides. | column: IC50 (µM) || We had previously identified several E protein regions where peptides mimicking the E protein sequence might function as inhibitors. […] These included a peptide derived from the domain II fusion sequence (DN80, corresponding to amino acids 96–114 in the DENV-2 E protein) and two overlapping peptides derived from the domain II hinge region (DN57 and DN81, corresponding to amino acids 205–223 and 205–232, respectively). Predictions from crystal structures, [14], [15], as well as the previously confir ...

[5] = FFU reduction, DENV-2 NG-C on LLC-MK2 cells, dashed line = tested, 50% inhibition not achieved, read-out: IC50 (did not achieve 50% inhibition)
[6] = MTT, confluent LLC-MK2, 24 h post-exposure, any concentration tested, one-way ANOVA, P>0.05

Substance: QQCFRFPALRKKATYTRFWI [1OAN1-scram, scrambled version of 1OAN1 of identical composition]
- IC50 (DENV-2 strain NG-C [1]; [5]): > 50 µM
- inhibition of DENV-2 infection (in words) (DENV-2 strain NG-C [1]; FFU reduction): did not inhibit infection by DENV-2 at any concentration tested
- cellular toxicity (LLC-MK2 cells; [6]): not toxic at any concentration tested

Substance: MVIVQHQWMQIMRWPWQPE [DN80opt]
- IC50 (DENV-2 strain NG-C [1]; [5]): > 50 µM

Substance: RWMVWRHWFHRLRLPYNPGKNKQNQQWP [DN57opt]
- Kd [2]: 1.2 µM
- kon [2]: 800 M⁻¹ s⁻¹
- koff [2]: 0.00077 s⁻¹
- IC50 (DENV-2 strain NG-C [1]; -2 strain NG-C, 1 h): 8 ± 1 µM
- maximum inhibition (DENV-2 strain NG-C [1]; -2 strain NG-C, 20 µM): 97%
- cellular toxicity (LLC-MK2 cells): mildly toxic

Substance: YPENLEYRVYITPHPGEEHH [1OAN2, de novo designed peptide, E protein region 131–150]
- IC50 (DENV-2 strain NG-C [1]; [5]): > 50 µM

Substance: WHTVEPIVTEKDRPVNYEWE [1OAN4, de novo designed peptide, E protein region 351–370]
- IC50 (DENV-2 strain NG-C [1]; [5]): > 50 µM

Substance: EWSKHREGRWHTALTGATEI [1OAN3, de novo designed peptide, E protein region 251–270]
- IC50 (DENV-2 strain NG-C [1]; [5]): > 50 µM

Substance: RQMRAWGQDYQHGGMGYSC [DN81opt]
- IC50 (DENV-2 strain NG-C [1]; -2 strain NG-C, 1 h): 36 ± 6 µM
- maximum inhibition (DENV-2 strain NG-C [1]; -2 strain NG-C, 50 µM): 57%

Substance: FWFTLIKTQAKQPARYRRFC [1OAN1]
- Kd [2]: 0.45 µM
- kon [2]: 3900 M⁻¹ s⁻¹
- koff [2]: 0.0016 s⁻¹
- IC50 (DENV-2 strain NG-C [1]; -2 strain NG-C, 1 h): 7 ± 4 µM
- maximum inhibition (DENV-2 strain NG-C [1]; -2 strain NG-C, 50 µM): 99%
- cellular toxicity (LLC-MK2 cells; [6]): not toxic at any concentration tested

Substance: heparan sulfate
- virus:cell binding [3]: reduced cell binding

Substance: AWLVHTQWFLDLPLPWLPGADTQGSNWI [DN57wt, previously tested wild type peptide from the DENV-2 E domain II hinge region]
- DENV inhibitory activity of wild type mimic peptides (in words) (DENV-2 strain NG-C [4]): did not show substantial DENV inhibitory activity
- IC50 (DENV-2 strain NG-C [4]): > 50 µM

Substance: RWRHLKKMQRLQPRNPNWPGQFWVHYNW [DN57opt-scram, scrambled version of DN57opt of identical composition]
- IC50 (DENV-2 strain NG-C [1]; [5]): > 50 µM
- inhibition of DENV-2 infection (in words) (DENV-2 strain NG-C [1]; FFU reduction): did not display inhibition at any concentration tested
- cellular toxicity (LLC-MK2 cells; [6]): not toxic at any concentration tested

Substance: AWLVHRQWFLDLPLPWLPG [DN81wt, previously tested wild type peptide from the domain II hinge region]
- DENV inhibitory activity of wild type mimic peptides (in words) (DENV-2 strain NG-C [4]): did not show substantial DENV inhibitory activity
- IC50 (DENV-2 strain NG-C [4]): > 50 µM

— PMC2889824, “Structural Optimization and De Novo Design of Dengue Virus Entry Inhibitory Peptides” (PLoS Neglected Tropical Diseases, 2010)
